Experimental data published in the NIST ThermoML archive (doi:10.1021/je800783a).

Test: xn = mol fraction of the nth substance listed
Details: 101 kPa, Liquid, Vibrating tube method

CCCn1cc[n+](C)c1.N[C@@H](CCC(=O)O)C(=O)[O-] + O
Details | mass density [kg/m3]
283.15 K, x1 = 0.039 | 1090.4
283.15 K, x1 = 0.0455 | 1100.76
283.15 K, x1 = 0.0497 | 1106.9
283.15 K, x1 = 0.0683 | 1129.12
283.15 K, x1 = 0.0783 | 1139.04
283.15 K, x1 = 0.0894 | 1147.7
283.15 K, x1 = 0.0975 | 1153.37
283.15 K, x1 = 0.1235 | 1169.78
283.15 K, x1 = 0.1451 | 1178.22
283.15 K, x1 = 0.1925 | 1191.85
283.15 K, x1 = 0.239 | 1201.76
283.15 K, x1 = 0.2888 | 1208.1
283.15 K, x1 = 0.3294 | 1211.85
283.15 K, x1 = 0.3767 | 1215
283.15 K, x1 = 0.4265 | 1218.6
283.15 K, x1 = 0.4713 | 1220.69
283.15 K, x1 = 0.5112 | 1221.72
283.15 K, x1 = 0.5427 | 1223.07
288.15 K, x1 = 0.039 | 1088.42
288.15 K, x1 = 0.0455 | 1098.39
288.15 K, x1 = 0.0497 | 1104.45
288.15 K, x1 = 0.0683 | 1126.36
288.15 K, x1 = 0.0783 | 1136.21
288.15 K, x1 = 0.0894 | 1144.79
288.15 K, x1 = 0.0975 | 1150.37
288.15 K, x1 = 0.1235 | 1166.6
288.15 K, x1 = 0.1451 | 1175.07
288.15 K, x1 = 0.1925 | 1188.67
288.15 K, x1 = 0.239 | 1198.15
288.15 K, x1 = 0.2888 | 1204.86
288.15 K, x1 = 0.3294 | 1208.49
288.15 K, x1 = 0.3767 | 1211.68
288.15 K, x1 = 0.4265 | 1214.72
288.15 K, x1 = 0.4713 | 1217.33
288.15 K, x1 = 0.5112 | 1218.47
288.15 K, x1 = 0.5427 | 1220.26
293.15 K, x1 = 0.039 | 1086.11
293.15 K, x1 = 0.0455 | 1095.92
293.15 K, x1 = 0.0497 | 1101.92
293.15 K, x1 = 0.0683 | 1123.56
293.15 K, x1 = 0.0783 | 1133.31
293.15 K, x1 = 0.0894 | 1141.8
293.15 K, x1 = 0.0975 | 1147.34
293.15 K, x1 = 0.1235 | 1163.35
293.15 K, x1 = 0.1451 | 1172.01
293.15 K, x1 = 0.1925 | 1185.47
293.15 K, x1 = 0.239 | 1194.83
293.15 K, x1 = 0.2888 | 1201.46
293.15 K, x1 = 0.3294 | 1205.08
293.15 K, x1 = 0.3767 | 1208.49
293.15 K, x1 = 0.4265 | 1211.93
293.15 K, x1 = 0.4713 | 1213.9
293.15 K, x1 = 0.5112 | 1215.18
293.15 K, x1 = 0.5427 | 1216.93
298.15 K, x1 = 0.039 | 1083.72
298.15 K, x1 = 0.0455 | 1093.38
298.15 K, x1 = 0.0497 | 1099.3
298.15 K, x1 = 0.0683 | 1120.71
298.15 K, x1 = 0.0783 | 1130.35
298.15 K, x1 = 0.0894 | 1138.78
298.15 K, x1 = 0.0975 | 1144.3
298.15 K, x1 = 0.1235 | 1160.15
298.15 K, x1 = 0.1451 | 1168.85
298.15 K, x1 = 0.1925 | 1182.21
298.15 K, x1 = 0.239 | 1191.61
298.15 K, x1 = 0.2888 | 1197.83
298.15 K, x1 = 0.3294 | 1201.85
298.15 K, x1 = 0.3767 | 1205.25
298.15 K, x1 = 0.4265 | 1209.67
298.15 K, x1 = 0.4713 | 1210.64
298.15 K, x1 = 0.5112 | 1211.78
298.15 K, x1 = 0.5427 | 1213.92
303.15 K, x1 = 0.039 | 1081.22
303.15 K, x1 = 0.0455 | 1090.77
303.15 K, x1 = 0.0497 | 1096.64
303.15 K, x1 = 0.0683 | 1117.81
303.15 K, x1 = 0.0783 | 1127.36
303.15 K, x1 = 0.0894 | 1135.72
303.15 K, x1 = 0.0975 | 1141.18
303.15 K, x1 = 0.1235 | 1156.96
303.15 K, x1 = 0.1451 | 1165.64
303.15 K, x1 = 0.1925 | 1178.9
303.15 K, x1 = 0.239 | 1188.36
303.15 K, x1 = 0.2888 | 1194.59
303.15 K, x1 = 0.3294 | 1198.55
303.15 K, x1 = 0.3767 | 1201.91
303.15 K, x1 = 0.4265 | 1206.45
303.15 K, x1 = 0.4713 | 1207.32
303.15 K, x1 = 0.5112 | 1208.42
303.15 K, x1 = 0.5427 | 1210.64
308.15 K, x1 = 0.039 | 1078.64
308.15 K, x1 = 0.0455 | 1088.06
308.15 K, x1 = 0.0497 | 1093.89
308.15 K, x1 = 0.0683 | 1114.86
308.15 K, x1 = 0.0783 | 1124.33
308.15 K, x1 = 0.0894 | 1132.63
308.15 K, x1 = 0.0975 | 1138.07
308.15 K, x1 = 0.1235 | 1153.81
308.15 K, x1 = 0.1451 | 1162.49
308.15 K, x1 = 0.1925 | 1175.73
308.15 K, x1 = 0.239 | 1185.05
308.15 K, x1 = 0.2888 | 1191.36
308.15 K, x1 = 0.3294 | 1195.3
308.15 K, x1 = 0.3767 | 1198.71
308.15 K, x1 = 0.4265 | 1203.15
308.15 K, x1 = 0.4713 | 1203.95
308.15 K, x1 = 0.5112 | 1205.15
308.15 K, x1 = 0.5427 | 1207.34
313.15 K, x1 = 0.039 | 1075.97
313.15 K, x1 = 0.0455 | 1085.27
313.15 K, x1 = 0.0497 | 1091.07
313.15 K, x1 = 0.0683 | 1111.85
313.15 K, x1 = 0.0783 | 1121.25
313.15 K, x1 = 0.0894 | 1129.5
313.15 K, x1 = 0.0975 | 1134.91
313.15 K, x1 = 0.1235 | 1150.57
313.15 K, x1 = 0.1451 | 1159.24
313.15 K, x1 = 0.1925 | 1172.52
313.15 K, x1 = 0.239 | 1181.78
313.15 K, x1 = 0.2888 | 1188.1
313.15 K, x1 = 0.3294 | 1192.09
313.15 K, x1 = 0.3767 | 1195.42
313.15 K, x1 = 0.4265 | 1199.74
313.15 K, x1 = 0.4713 | 1200.57
313.15 K, x1 = 0.5112 | 1201.78
313.15 K, x1 = 0.5427 | 1203.93
318.15 K, x1 = 0.039 | 1073.22
318.15 K, x1 = 0.0455 | 1082.41
318.15 K, x1 = 0.0497 | 1088.19
318.15 K, x1 = 0.0683 | 1108.8
318.15 K, x1 = 0.0783 | 1118.14
318.15 K, x1 = 0.0894 | 1126.34
318.15 K, x1 = 0.0975 | 1131.71
318.15 K, x1 = 0.1235 | 1147.32
318.15 K, x1 = 0.1451 | 1155.99
318.15 K, x1 = 0.1925 | 1169.27
318.15 K, x1 = 0.239 | 1178.48
318.15 K, x1 = 0.2888 | 1184.82
318.15 K, x1 = 0.3294 | 1188.84
318.15 K, x1 = 0.3767 | 1192.17
318.15 K, x1 = 0.4265 | 1196.17
318.15 K, x1 = 0.4713 | 1197.03
318.15 K, x1 = 0.5112 | 1198.21
318.15 K, x1 = 0.5427 | 1200.61
323.15 K, x1 = 0.039 | 1070.37
323.15 K, x1 = 0.0455 | 1079.46
323.15 K, x1 = 0.0497 | 1085.24
323.15 K, x1 = 0.0683 | 1105.7
323.15 K, x1 = 0.0783 | 1114.98
323.15 K, x1 = 0.0894 | 1123.14
323.15 K, x1 = 0.0975 | 1128.49
323.15 K, x1 = 0.1235 | 1144.03
323.15 K, x1 = 0.1451 | 1152.7
323.15 K, x1 = 0.1925 | 1166
323.15 K, x1 = 0.239 | 1175.27
323.15 K, x1 = 0.2888 | 1181.51
323.15 K, x1 = 0.3294 | 1185.58
323.15 K, x1 = 0.3767 | 1188.94
323.15 K, x1 = 0.4265 | 1192.88
323.15 K, x1 = 0.4713 | 1193.63
323.15 K, x1 = 0.5112 | 1194.79
323.15 K, x1 = 0.5427 | 1197.22
328.15 K, x1 = 0.039 | 1067.43
328.15 K, x1 = 0.0455 | 1076.44
328.15 K, x1 = 0.0497 | 1082.22
328.15 K, x1 = 0.0683 | 1102.55
328.15 K, x1 = 0.0783 | 1111.78
328.15 K, x1 = 0.0894 | 1119.9
328.15 K, x1 = 0.0975 | 1125.24
328.15 K, x1 = 0.1235 | 1140.73
328.15 K, x1 = 0.1451 | 1149.4
328.15 K, x1 = 0.1925 | 1162.68
328.15 K, x1 = 0.239 | 1172
328.15 K, x1 = 0.2888 | 1178.21
328.15 K, x1 = 0.3294 | 1182.29
328.15 K, x1 = 0.3767 | 1185.67
328.15 K, x1 = 0.4265 | 1189.64
328.15 K, x1 = 0.4713 | 1190.41
328.15 K, x1 = 0.5112 | 1191.55
328.15 K, x1 = 0.5427 | 1193.66
333.15 K, x1 = 0.039 | 1064.43
333.15 K, x1 = 0.0455 | 1073.32
333.15 K, x1 = 0.0497 | 1079.13
333.15 K, x1 = 0.0683 | 1099.36
333.15 K, x1 = 0.0783 | 1108.54
333.15 K, x1 = 0.0894 | 1116.63
333.15 K, x1 = 0.0975 | 1121.94
333.15 K, x1 = 0.1235 | 1137.4
333.15 K, x1 = 0.1451 | 1146.06
333.15 K, x1 = 0.1925 | 1159.35
333.15 K, x1 = 0.239 | 1168.59
333.15 K, x1 = 0.2888 | 1174.99
333.15 K, x1 = 0.3294 | 1178.98
333.15 K, x1 = 0.3767 | 1182.34
333.15 K, x1 = 0.4265 | 1186.35
333.15 K, x1 = 0.4713 | 1187.18
333.15 K, x1 = 0.5112 | 1188.22
333.15 K, x1 = 0.5427 | 1190.35
338.15 K, x1 = 0.039 | 1061.36
338.15 K, x1 = 0.0455 | 1070.11
338.15 K, x1 = 0.0497 | 1075.98
338.15 K, x1 = 0.0683 | 1096.1
338.15 K, x1 = 0.0783 | 1105.26
338.15 K, x1 = 0.0894 | 1113.31
338.15 K, x1 = 0.0975 | 1118.6
338.15 K, x1 = 0.1235 | 1134.05
338.15 K, x1 = 0.1451 | 1142.71
338.15 K, x1 = 0.1925 | 1155.98
338.15 K, x1 = 0.239 | 1165.3
338.15 K, x1 = 0.2888 | 1171.72
338.15 K, x1 = 0.3294 | 1175.77
338.15 K, x1 = 0.3767 | 1179.04
338.15 K, x1 = 0.4265 | 1183.09
338.15 K, x1 = 0.4713 | 1183.94
338.15 K, x1 = 0.5112 | 1184.93
338.15 K, x1 = 0.5427 | 1187.07
